Measured values published in patent US20250161295A1, “EXATECAN FORMULATION” (Yale University, priority 2022, published 2025).
Counter-ions that a name gives are not always drawn.

Legend:
[1] = test system: SCC tumors (PDVC57 cells); experiment: Intratumoral injection of exatecan in PDVC57 SCC tumors (Example 1, Experiments 1 and 2): tumor outcome; assay type: in vivo, C57BL/6J mice
Procedure: (§1) Exatecan mesylate (“EXA”) (DX895If; MedChemExpress #HY-13631A) was dissolved in sterile dH20 (Invitrogen 10977-023) to prepare a 5 mg/mL or a 10 mg/mL stock solution. […] The concentration was confirmed by HPLC and further dilutions prepared as needed in sterile dH2O.
Control groups received an equal volume of sterile dH2O.
16 days post-treatment, when the first vehicle control tumors reached 1 cm in one dimension, half (N=5) of each group was harvested for histology: tumors were measured, ranked by volume (V=(½)(W^2×L)), and every-other one harvested (#1, 3, 5, 7, and 9 were harvested and #2, 4, 6, 8, and 10 were not).

[2] = mouse, in vivo
Procedure: (§2) SCC tumors were established by subcutaneous injection of 5 million PDVC57 cells into the right flank of syngeneic C57BL/6J mice. Seven days later, when tumors ranged from 4.5-5.5 mm in diameter, mice were evenly distributed among the treatment groups (N=5-10 mice/group, see below) and received intratumoral injections of vehicle (dH2O) or exatecan.
(§3) A 0.5-mL 31 G syringe (BD Insulin Syringe #328468) was used to deliver 0.1 mg or 0.2 mg exatecan in a 20-microliter volume, or 0.4 mg in a 40-microliter volume (because of solubility limitations). Control groups received an equal volume of sterile dH2O. The needle was placed into the tumor and the appropriate volume was slowly injected (approximately over 5 sec). The needle was held in place for 10 seconds after the injection was complete, then slowly removed while maintaining finger pressure on the injection site.

[3] = Intratumoral injection of exatecan (Example 1): toxicity
Procedure: as §2, §3

[4] = Dissolution of exatecan mesylate in sterile dH2O (stock preparation); assay type: physicochemical
Procedure: as §1

[5] = test system: PDVC57 cells (SCC tumors); experiment: Single intratumoral injection of water-based exatecan mesylate formulation, followed to endpoint tumor volume 1 cm^3 (Example 4); assay type: in vivo, C57BL/6J mice
Procedure: In a second experiment, 15 mice with tumors ranging in size from 50-100 mm^3, calculated as described above, were examined.
PDVC57 cells were injected into 6-week-old female C57BL/6J mice. Treatment was administered by a single intratumoral injection seven days after tumor cell inoculation. Intratumoral injection was performed using BD insulin syringe (30-gauge×8 mm needle; #328468). The vehicle was Invitrogen UltraPure Distilled Water #10977-015.
The experimental group received 10 mg/mL exatecan. The treatment volume was 0.02 mL. Ten of the mice were given a single injection of a water-based formulation containing exatecan mesylate while the other 5 mice received a vehicle injection of ultrapure DI water and served as the control group. These mice were observed until the endpoint at which their tumor volume was 1 cm^3. […]

[6] = pH-dependent exatecan mesylate solubility in phosphate buffers (precipitate rating); assay type: physicochemical; parameters: key to Precipitate rating (Yes/No): Precipitate rating “Yes” means visible precipitate observed at 10× magnification; “No” means no visible precipitate observed at 10× magnification
Procedure: Materials and methods A water-based formulation was made containing exatecan mesylate at a concentration of 10 mg/mL exatecan mesylate in water (Invitrogen UltraPure Distilled Water #10977-015). Phosphate buffers A and B were made by dissolving either 1M potassium phosphate monobasic (KH2PO4) for buffer A or 1M potassium phosphate dibasic ([…]) for buffer B in distilled water. Solutions with pH values ranging between 4.3 and 9.6 were prepared by mixing buffer A (pH 4.3) with buffer B (pH 9.6) at pre-determined percentages. A pH meter was used to confirm the pH of the resulting phosphate buffer solutions by dipping the electrode into the solution.
To determine the pH solubility of the water-based formulation, 5 μL of the 10 mg/mL EXA in DI water was added to 100 μL 1M phosphate buffer at varying pH levels in a 96-well plate to produce a final concentration of […] EXA per milliliter. The solubility tests were conducted at pH 4.30 (0% buffer B), pH 5.6 (10% buffer B), pH 6.1 (20% buffer B), pH 6.4 (30% buffer B), pH 6.7 (40% buffer B), pH 7.0 (50% buffer B), pH 7.2 (60% buffer B), pH 7.5 (70% buffer B), pH 7.8 (80% buffer B), pH 8.2 (90% buffer B) and pH 9.6 (100% buffer B). Precipitation was assessed and images of the precipitate at the bottom of the 96-well plate were taken after 1 hour.

ID8-Luc tumor cells = experiment: BNP-111 in vivo efficacy in ID8 ovarian cancer model (IVIS tumor burden); parameters: species or system C57Bl/6 mice; conditions: 2.5 mpk i.p. once weekly x4; day 56
Procedure: Luciferase expressing ID8-Luc tumor cells were washed twice in sterile PBS, resuspended in sterile PBS and a 1 ml 27 G syringe used to inject 1 million cells intraperitoneally (i.p.) into syngeneic female C57Bl/6 mice.

[7] = test system: PDVC57 cells (SCC tumors); experiment: Titrated doses of a single injection of water-based exatecan mesylate formulation on tumor size (Example 5); assay type: in vivo, C57BL/6J mice
Procedure: In a third experiment, 15 mice (i.e., five groups each containing three mice) with tumors ranging in size 59-80 mm^3, calculated as described above, were examined. PDVC57 cells were injected into 6-week-old female C57BL/6J mice. Treatment was administered seven days after tumor cell inoculation. Intratumoral injection performed using BD insulin syringe (30-gauge×8 mm needle; #328468). Mice were randomly assigned to one of five groups and were given a single intratumoral injection of either the vehicle (UltraPure Distilled Water, Invitrogen, #10977-015) or one of the following concentrations of the water-based formulation containing exatecan mesylate: 10 mg/mL, 5 mg/mL, 2.5 mg/mL or 1.25 mg/mL for a total treatment volume of 0.02 mL. All the mice were harvested 14 days post treatment for histological assessments.

[8] = test system: PDVC57 cells (SCC tumors); experiment: Single intratumoral injection of water-based exatecan mesylate formulation in mouse model of SCC (Example 3); assay type: in vivo, C57BL/6J mice
Procedure: Six-week old female C57BL/6J mice were used in this study.
PDVC57 cells were developed in, and obtained from, the laboratory of Dr. Allan Balmain (Quintanilla, et al., Carcinogenesis 1991, 12 (10), 1875-1881). Mice were anesthetized with avertin and their flanks shaved. The mice were then given an intradermal injection with of 5 million PDVC57 cells in suspension in 100 μL PBS. A 1 cc syringe fitted with a 27 g needle was used for the intradermal injection.
Seven days following tumor cell inoculation, the mice were given either a single intratumoral injection of 10 mg/mL exatecan mesylate in ultrapure distilled water (Invitrogen, Catalog #10977-015) or a vehicle injection using a BD insulin syringe (30-gauge×8 mm needle; #328468). The vehicle was invitrogen UltraPure Distilled Water #10977-015. The treatment volume was 0.02 mL.
Mice were sedated. Calipers were used to measure tumor diameter. Tumor volume was calculated from micrometer measurements using the following formula: […]
When tumors reached the endpoint, i.e., tumor volume of 1 cm^3, mice were euthanized by isoflurane inhalation and tumors dissected away from subcutaneous tissue. Isolated tumors were bisected along the longest axis, fixed in 10% neutral buffered fonnalin and submitted to Yale Research Pathology for embedding, sectioning, and H&E staining. Resulting slides were scanned using a Zeiss AxioObserver Z1 with TissueGnostics TissueFAXS software. Images were analyzed using Fiji software.
In a first experiment, 20 mice with tumors ranging in size from 45-85 mm^3 were examined. The group size was 10. Ten of the mice were given a single injection of a water-based formulation containing exatecan mesylate (10 mg/mL), while the other 10 mice received a vehicle injection of ultrapure DI water and served as the control group. For each group (experimental group or control), half of the mice were harvested 16 days post-treatment for histological assessment, the other half were harvested 32 days post-treatment if they had discernible tumors or monitored until day 66 if no palpable tumors were observed.

[9] = test system: SCC tumors (PDVC57 cells); experiment: Intratumoral injection of exatecan in PDVC57 SCC tumors (Example 1, Experiments 1 and 2): tumor outcome; assay type: in vivo, C57BL/6J mice; conditions: EXA 0.2 mg single intratumoral injection; of 6 mice harvested (4 not harvested)
[10] = 10 mg/mL, 0.02 mL single injection

CC[C@@]1(O)C(=O)OCc2c1cc1n(c2=O)Cc2c-1nc1cc(F)c(C)c3c1c2[C@@H](N)CC3 [EXA, Exatecan mesylate]
Mice whose tumor progressed to 1 cm ([1]; 0.2 mg, the five mice not harvested on day 16): one of the remaining five | Efficacy of treatment (summary) ([1]; 0.2-mg dose per animal): very effective | Tumor incidence ([1]; EXA 0.1 mg x2): 57% | Tumor incidence (mice) ([1]; EXA 0.1 mg x2): 4 of 7 | Mice remaining (days post-treatment), no palpable tumor ([1]; EXA 0.1 mg x2, day 36): 2 (day 36) - | Histology (N): mice with tumor ([1]; EXA 0.1 mg x2, of 5 mice harvested (2 not harvested)): Tumor in 4 | Tumor incidence ([1]; EXA 0.2 mg single injection, N=10): 20% | Mice remaining (days post-treatment), no palpable tumor ([1]; EXA 0.2 mg single injection, day 53): 4 (day 53) - | Mice remaining (days post-treatment), no palpable tumor ([1]; EXA 0.2 mg single injection, day 53, listed as exatecan): four | Mice remaining (days post-treatment), no palpable tumor ([1]; EXA 0.4 mg single injection, day 36): 1 (day 36) - | Efficacy compared with single 0.2 mg dose ([1]; two doses of 0.1 mg per animal separated by 3 days): less effective | Tolerability compared with single 0.2 mg dose [2]: less well tolerated | Toxicity (summary) ([3]; 0.4 mg per animal): lethality | Toxicity: number of mice in which lethal ([3]; EXA 0.1 mg x2 (day 0 and day 3), of 9 mice): Lethal in 2 of | Toxicity: number of mice in which lethal ([3]; EXA 0.4 mg single injection, of 8 mice): Lethal in 7 of | Dissolution in sterile dH2O ([4]; 10 mg/mL stock): warming to 60 °C plus sonication and vortexing were needed | Dissolution in sterile dH2O ([4]; at 5 mg/mL): dissolves immediately | Mice with tumors that reached endpoint volume (1 cm^3) ([5]; 10 mg/mL, 0.02 mL single injection, through day 77): 4 of 10 | Mantel-Cox log rank test p (survival vs dH2O vehicle) ([5]; 77 days post-treatment, 10 mg/mL, 0.02 mL): < 0.0001 | Cure ([5]; Day 77 post-treatment): 60% | Mice remaining with no palpable tumor ([5]; Day 77 post-treatment): 6 of the 10 | Mice with a large tumor (clinical images) ([5]; day 22 post-treatment, 10 mg/mL, 0.02 mL): 1 of 10 | Time at which tumors reached endpoint volume ([5]; the 4 mice that reached 1 cm^3): 34-52 days post-treatment | pH at which enhanced precipitation and decrease in solubility is shown ([6]; 1M phosphate buffer): ≥ 7.12 | Precipitate rating (Yes/No) ([6]; Control (distilled water), 0% buffer A, 0% buffer B, pH 7): No | Onset of precipitation after addition to phosphate buffer ([6]; EXA/DI water mixture added to phosphate buffer): generally immediate | Precipitate rating (Yes/No) ([6]; Sample 1: 100% buffer A, 0% buffer B, pH 4.3): No | Precipitate rating (Yes/No) ([6]; Sample 2: 90% buffer A, 10% buffer B, pH 5.6): No | Precipitate rating (Yes/No) ([6]; Sample 3: 80% buffer A, 20% buffer B, pH 6.1): No | Precipitate rating (Yes/No) ([6]; Sample 4: 70% buffer A, 30% buffer B, pH 6.4): No | Precipitate rating (Yes/No) ([6]; Sample 5: 60% buffer A, 40% buffer B, pH 6.7): Yes | Precipitate rating (Yes/No) ([6]; Sample 6: 50% buffer A, 50% buffer B, pH 7.0): Yes | Precipitate rating (Yes/No) ([6]; Sample 7: 40% buffer A, 60% buffer B, pH 7.2): Yes | Precipitate rating (Yes/No) ([6]; Sample 8: 30% buffer A, 70% buffer B, pH 7.5): Yes | Precipitate rating (Yes/No) ([6]; Sample 9: 20% buffer A, 80% buffer B, pH 7.8): Yes | Precipitate rating (Yes/No) ([6]; Sample 10: 10% buffer A, 90% buffer B, pH 8.2): Yes | Precipitate rating (Yes/No) ([6]; Sample 11: 0% buffer A, 100% buffer B, pH 9.6): Yes | Reduction of tumor burden (photon flux) (ID8-Luc tumor cells): 62.16% | Tumor size compared to vehicle ([7]; 2.5 mg/mL, 0.02 mL, 14 days): almost complete reduction in tumor size | Tumor size compared to vehicle ([7]; 5 mg/mL, 0.02 mL, 14 days): almost complete reduction in tumor size | Tumor size compared to 1.25 mg/mL and vehicle ([7]; 10 mg/mL, 0.02 mL, 14 days): significantly reduced tumors | Tumor size compared to vehicle ([7]; all doses administered (10, 5, 2.5, 1.25 mg/mL; 0.02 mL), 14 days post treatment): reduced tumor size | Mice remaining (day 66 post-treatment), no palpable tumor [8, 10]: 4 - no | Tumor incidence overall [8, 10]: (20%) | Tumor incidence overall (mice) [8, 10]: 2 of 10 | Day 32 harvest for histology: tumor in ([8]; 10 mg/mL, 0.02 mL single injection, 4 mice not harvested): 1 of 1. 4 | % of mice that eliminated their tumor ([8]; 10 mg/mL, 0.02 mL single injection, assessed at day 16 and day 66): 80% | Day 16 harvest for histology: tumor in ([8]; 10 mg/mL, 0.02 mL single intratumoral injection): 1 of 5 | Histological assessment: mice with no discernible tumor ([8]; 5 mice per group): 4 out of 5 | Inflammation of surrounding tissue compared to vehicle-treated mice ([8]; single dose, histology): decreased inflammation | Tissue damage ([8]; single dose, histology): minimal tissue damage | Histology (N): mice with tumor [9]: Tumor in 2
